Source: patent publication US20100008894A1, “Process of Screening a Molecule as a Candidate Drug for the Treatment of Bipolar Disorder” (Institute pasteur, priority 2005, published 2010)

What was measured:
NM23-H2 = NM23-H2 (Homo sapiens, UniProt P22392); conditions: cited from earlier work
Orn [1] = biological target: T1, Orn (Escherichia coli, UniProt P0A784); assay: pAp/AMP-binding assay with recombinant Orn; design: species or system E. coli; conditions: 15 μg protein, 5 μl agarose
T1 construct: made in house; host or cells: E. coli MG1655 carrying pUM408, arabinose-induced
T1 sequence (P0A784 whole entry): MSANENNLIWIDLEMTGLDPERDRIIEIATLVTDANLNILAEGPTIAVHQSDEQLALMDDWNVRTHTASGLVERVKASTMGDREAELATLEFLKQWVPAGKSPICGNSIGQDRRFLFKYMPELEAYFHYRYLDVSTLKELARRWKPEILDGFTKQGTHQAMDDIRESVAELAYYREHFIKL
Description: (§1) 30 μl samples containing 15 μg of Orn-His or CysQ-His in pAp-agarose buffer containing 100 mM NaCl were incubated with 5 μl of prewashed pAp- or AMP-agarose by rotating for 1 hour at 4° C. in durapore spin columns (Millipore). Beads were removed by centrifugation, and 5 μl of the unbound fraction, designated flow through was measured for protein content using Bio-Rad protein assay. The fraction bound to the beads was eluted by the addition of 40 μl of hot SDS-sample buffer and incubation for 15 minutes at 65° C.
(§2) Orn is an essential protein in E. coli involved in mRNA degradation. It has 3′ to 5′ exoribonuclease activity selectively active on short ribonucleotides. 5′adenosine monophosphate (AMP) is known to inhibit Orn (Datta & Niyogi, 1975). It was therefore important to compare binding of Orn to AMP and pAp. To this end recombinant Orn has been purified and its binding was measured to equal amounts of pAp- or AMP-agarose, both affinity substrates with identical binding capacities, CysQ was included as a positive control. Similar experiments were done with cell free extracts from strains overexpressing Orn or CysQ. […] Furthermore, significant amounts of Orn, roughly one third, but not CysQ bind to AMP-agarose. […]

CysQ [2] = biological target: T2, CysQ (Escherichia coli, UniProt P22255); assay: pAp/AMP-binding assay with recombinant CysQ; design: species or system E. coli; conditions: 15 μg protein, 5 μl agarose
T2 construct: made in house; host or cells: E. coli MG1655 carrying pUM404, arabinose-induced
T2 sequence (P22255 whole entry): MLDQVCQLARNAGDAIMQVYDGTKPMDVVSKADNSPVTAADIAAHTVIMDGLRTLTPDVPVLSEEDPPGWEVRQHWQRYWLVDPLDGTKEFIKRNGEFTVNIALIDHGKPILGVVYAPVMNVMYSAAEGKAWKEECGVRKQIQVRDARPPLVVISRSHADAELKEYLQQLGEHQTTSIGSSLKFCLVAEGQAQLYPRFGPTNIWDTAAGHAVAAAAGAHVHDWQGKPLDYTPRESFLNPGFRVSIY
Description: as §1, §2

Orn [3] = biological target: T1, Orn; assay: Orn activity assay (degradation of RNA-oligo 5mer); type: biochemical, E. coli; conditions: 10 μM inhibitor; 3 μM 5′Cy5-CCCCC3′ RNA
Description: Custome made RNA-oligo 5mers (5′Cy5-CCCCC3′), obtained from Proligo, were used as substrate for in vitro activity assays. 30 μl reactions containing 50 mM HEPES pH 7.5, 5 mM MnCl2, 3 μM substrate RNA and 0.1 μg oligoribonuclease were incubated at 37° C., and reactions were initiated by adding substrate. Inhibitors were added as indicated in the text. At intervals, 5 μl reaction aliquots were taken and stopped by adding an equal volume of sample buffer (95% formamide, 20 mM EDTA, 0.1% bromphenol blue) and frozen at −20° C. For analysis of the reaction products, samples were heated at 80° C. for 3 minutes and 2.5 μl was applied to PAGE on a 22% SDS-PAA gel containing 2×TBE and run in 2×TBE. Fluorescent RNA oligos were visualized using a Molecular Dynamics STORM 860 in 650-nm long-pass filter mode.
Given the strong affinity of Orn for pAp, it was investigated whether pAp affects Orn activity. […] Those small RNA-oligos are called here nanoRNAs, in order to distinguish them from microRNAs, which have become a subject of extensive studies in the last several years. RNA-oligo 5-mers (5′-CCCCC-3′) labeled at their 5′-phosphate end with the sulfoindocyanine succinimidyl ester cyanine 5 (Cy5) were therefore used as substrate for in vitro assays with purified recombinant Orn. […]

CysQ [4] = biological target: T2, CysQ; type: biochemical, E. coli
Sfn [5] = biological target: T3, Sfn (Homo sapiens, UniProt Q9Y3B8); assay: Sfn-catalyzed degradation of oligo RNA; type: biochemical
T3 construct: His tag; made in house
T3 sequence (Q9Y3B8 26-237): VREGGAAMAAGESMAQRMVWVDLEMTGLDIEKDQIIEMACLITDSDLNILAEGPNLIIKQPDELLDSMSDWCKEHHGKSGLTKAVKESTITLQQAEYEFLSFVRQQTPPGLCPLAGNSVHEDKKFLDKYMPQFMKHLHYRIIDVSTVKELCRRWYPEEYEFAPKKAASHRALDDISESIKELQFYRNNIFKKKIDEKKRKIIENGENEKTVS
Description: (§3) FIG. 9: Sensitivity of Sfn-catalyzed degradation of oligo RNA to pAp. Shown is the quantification of the distribution of reaction products that were separated on 22% PAA gels. Reactions included 0.5 μg Sfn and 3 μM of RNA oligo 5mer (5′Cy5-CCCCC3′). Reactions were started by the addition of enzyme. 20 μM or 50 μM pAp was present where indicated. Closed circle: 5mer, open circle: 4mer, closed triangle: 3mer, open triangle: 2mer, square: 1mer.
The term nanoRNA has been introduced to describe these extremely short RNA oligos. The Inventors have purified His-tagged Sfn in order to evaluate its sensitivity to pAp in-vitro. Inhibition of Sfn-catalyzed degradation of nanoRNA was tested at two concentrations of the inhibitor, 20 and 50 μM.

Sfn [6] = biological target: T3, Sfn; assay: Sfn-catalyzed degradation of oligo DNA; type: biochemical; conditions: 50 μM pAp; DNA oligo 5mer
Description: as §3, with “10:” for “9:”, “DNA” for “RNA”, “3” for “0.5”, “enzyme.” for “enzyme. 20 μM or”, “2mer. Monomers could not be included into this calculation due to their inability to enter the gel.” for “2mer, square: 1mer.”

PARP = biological target: T4, PARP (Homo sapiens, UniProt P09874); assay: Colorimetric PARP assay from Trevigen; type: biochemical; conditions: 1 μM pAp, in vitro
T4 construct: purchased Trevigen
T4 sequence (P09874 whole entry): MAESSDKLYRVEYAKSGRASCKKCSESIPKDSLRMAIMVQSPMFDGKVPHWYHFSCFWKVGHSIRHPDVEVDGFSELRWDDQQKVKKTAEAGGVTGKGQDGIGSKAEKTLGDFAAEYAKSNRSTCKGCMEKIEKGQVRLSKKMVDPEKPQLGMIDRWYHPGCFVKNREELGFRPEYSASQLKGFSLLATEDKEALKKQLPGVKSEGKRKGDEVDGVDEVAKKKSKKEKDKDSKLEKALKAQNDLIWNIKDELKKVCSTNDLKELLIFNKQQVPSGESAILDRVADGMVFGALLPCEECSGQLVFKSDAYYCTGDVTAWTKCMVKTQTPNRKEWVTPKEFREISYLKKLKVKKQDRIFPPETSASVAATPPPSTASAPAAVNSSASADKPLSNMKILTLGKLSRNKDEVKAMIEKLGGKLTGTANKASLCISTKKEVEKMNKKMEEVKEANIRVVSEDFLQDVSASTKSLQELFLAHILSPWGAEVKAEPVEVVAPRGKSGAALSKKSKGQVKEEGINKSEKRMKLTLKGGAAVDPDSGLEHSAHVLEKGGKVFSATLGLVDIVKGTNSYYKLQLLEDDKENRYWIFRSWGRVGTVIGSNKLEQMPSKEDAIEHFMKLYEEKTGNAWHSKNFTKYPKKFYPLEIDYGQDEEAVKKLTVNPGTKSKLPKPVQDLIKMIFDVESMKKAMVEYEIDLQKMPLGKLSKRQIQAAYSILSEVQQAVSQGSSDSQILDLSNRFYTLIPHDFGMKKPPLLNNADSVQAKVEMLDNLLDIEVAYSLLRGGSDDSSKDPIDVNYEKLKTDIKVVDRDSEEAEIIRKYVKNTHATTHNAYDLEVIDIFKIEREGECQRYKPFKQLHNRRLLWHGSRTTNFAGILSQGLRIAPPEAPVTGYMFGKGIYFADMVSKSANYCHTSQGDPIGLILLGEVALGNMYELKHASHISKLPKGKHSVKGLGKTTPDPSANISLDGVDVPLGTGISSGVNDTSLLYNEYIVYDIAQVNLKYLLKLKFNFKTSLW
Source text: The Inventors plan to verify this effect using an independent method, as they are not certain the effect that can be observed with the kit they used for this experiment (Colorimetric PARP assay from Trevigen) is independent of the nature of the inhibitor, as it seems that the phenomenon of self-inhibition of PARP due to auto modification has an important impact on the result. They plan therefore to measure PARP activity in-vitro in the presence or absence of pAp according to J. C. Ame using ^32P-NAD.

NM23-H2, sequence (P22392 whole entry): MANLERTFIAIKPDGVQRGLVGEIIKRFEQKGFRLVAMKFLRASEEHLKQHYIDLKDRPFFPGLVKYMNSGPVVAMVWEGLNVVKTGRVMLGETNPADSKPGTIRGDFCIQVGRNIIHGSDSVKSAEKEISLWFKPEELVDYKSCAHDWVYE

For Nc1ncnc2c1ncn2[C@@H]1O[C@H](COP(=O)(O)OP(=O)(O)O)[C@@H](O)[C@H]1O [ADP], the “inhibition of the cleavage reaction (yes/no)” value (NM23-H2) is given as “not”.
With Nc1ncnc2c1ncn2[C@@H]1O[C@H](COP(=O)(O)O)[C@@H](O)[C@H]1O [AMP, 5′adenosine monophosphate] the “binding of Orn to nucleotide-agarose” value (Orn [1]) was “roughly one third”, the “binding of CysQ to nucleotide-agarose” value (CysQ [2]) was “not” and the “inhibition of degradation of nanoRNA by Orn” value (Orn [3]) was “inhibiting”.
In the case of Nc1ncnc2c1ncn2[C@@H]1O[C@H](COP(=O)(O)OP(=O)(O)OP(=O)(O)O)[C@@H](O)[C@H]1O [ATP], the “inhibition of the cleavage reaction” value (NM23-H2; 0.5 mM) is listed as 50%.
For [Ca+2].[Cl-].[Cl-] [CaCl2], the “inhibition of CysQ” value (CysQ [4]; 2 mM CaCl2, in the presence of 200 mM NaCl) was “complete inhibition”.
In the case of Nc1ncnc2c1ncn2[C@@H]1O[C@H](COP(=O)(O)O)[C@@H](OP(=O)(O)O)[C@H]1O [pAp, 3′-phosphoadenosine 5′-phosphate], the “binding of Orn to nucleotide-agarose” value (Orn [1]) was “almost quantitatively”, the “inhibition of Sfn-catalyzed degradation of nanoRNA” value (Sfn [5]; 20 μM pAp) was “Significant inhibition” and the “inhibition of Sfn-catalyzed degradation of nanoRNA” value (Sfn [5]; 50 μM pAp) was “increasing inhibition”. The “sensitivity of Sfn-catalyzed degradation of DNA oligos” value (Sfn [6]) was “highly sensitive”, the “binding of CysQ to nucleotide-agarose” value (CysQ [2]) was “almost quantitatively” and the “inhibition of degradation of nanoRNA by Orn” value (Orn [3]) was “significantly more pronounced”. For the same compound, the PARP activity (PARP) was 60%.
With [Cl-].[Na+] [sodium, NaCl] the “inhibition of CysQ by sodium” value (CysQ [4]; physiological concentrations, 200 mM NaCl) was “not inhibitory”.
